Test results from patent US11013726B2 (Arbutus Biopharma Corporation, priority 2016, dated 2021).

Test system: HBsAg
Experiment: In vitro combination study, HBsAg CLIA, MacSynergy II
Type: cell-based, hepatitis B virus
Description: In vitro combination studies were conducted using the method of Prichard & Shipman, 1990, Antiviral Res. 14(4-5):181-205, and Prichard, et al., MacSynergy II). The HepG2.2.15 cell culture system is a cell line derived from human hepatoblastoma HepG2 cells, that have been stably transfected with the adw2-subtype HBV genome (Sells, et al., 1987, Proc. Natl. Acad. Sci. U.S.A 84:1005-1009). HepG2.2.15 cells secrete Dane-like viral particles, produce HBV DNA, and produce the viral proteins, HBeAg and HBsAg.
Non-limiting examples of HBV RNA destabilizers are Compound A and Compound B. The EC50 values of these agents are shown in Table 12. Although inhibition of HBV DNA, RNA and proteins can be determined in the presence of the compounds of the invention and LNPs (both referred to herein as “agents”), the assay that can quantitatively measure the level of HBsAg was used in this study. To test the agent combinations, HepG2.2.15 (30,000 cells/well) were plated in 96 well tissue-culture treated microtiter plates in DMEM+L-Glutamine medium supplemented with 1% penicillin-streptomycin, 20 μg/mL geneticin (G418), 10% fetal bovine serum, and incubated in a humidified incubator at 37° C. and 5% CO2 overnight. The next day, the cells were replenished with fresh medium followed by the addition of compound of the invention (dissolved in 100% DMSO), and LNP (dissolved in 100% RPMI medium). The agents were added to cells in a checkerboard fashion. The microtiter cell plates were incubated for a total duration of 6 days in a humidified incubator at 37° C. and 5% CO2. On the 3rd day of incubation, the cells were replenished with fresh medium and agents. The serial dilutions spanned concentration ranges respective to the EC50 value of each agent, with the final DMSO concentration of the assay being 0.5%. In addition to combination testing of the agents in a checkerboard fashion, the compound and LNP were also tested alone.
Untreated positive control samples (0.5% DMSO in media) were included on each plate in multiple wells. Following a 6 day-incubation, media was removed from treated cells for use in an HBsAg chemiluminescence immunoassay (CLIA) (Autobio Diagnostics, Cat No. CL0310-2). An HBsAg standard curve was generated to verify that the levels of HBsAg quantification were within the detection limits of the assay. The remaining inhibitor-treated cells were assessed for cytotoxicity by determination of the intracellular adenosine triphosphate (ATP) using a Cell-Titer Glo reagent (Promega) as per manufacturers instructions and by microscopic analysis of the cells throughout the duration of inhibitor treatment. Cell viability was calculated as a percentage of the untreated positive control wells.
The plates were read using an EnVision multimode plate reader (PerkinElmer Model 2104). […] The RLU data from the single agent treated cells were analyzed using XL-Fit module in Microsoft Excel to determine EC50 values using a 4-parameter curve fitting algorithm.

[1] = Compound A 0.0001 μM, LNP-1 0.0025, 0.00079, 0.00025, 7.9E−05, 2.5E−05, 0 μM
[2] = Compound A 0.000316 μM, LNP-1 0.0025, 0.00079, 0.00025, 7.9E−05, 2.5E−05, 0 μM
[3] = Compound A 0.001 μM, LNP-1 0.0025, 0.00079, 0.00025, 7.9E−05, 2.5E−05, 0 μM
[4] = Compound A 0.00316 μM, LNP-1 0.0025, 0.00079, 0.00025, 7.9E−05, 2.5E−05, 0 μM
[5] = Compound A 0.1 μM, LNP-1 0.0025, 0.00079, 0.00025, 7.9E−05, 2.5E−05, 0 μM
[6] = Compound A 1.0E−05 μM, LNP-1 0.0025, 0.00079, 0.00025, 7.9E−05, 2.5E−05, 0 μM
[7] = Compound A 1.0E−05 μM, LNP-2 0.0025, 0.00079, 0.00025, 7.9E−05, 2.5E−05, 0 μM
[8] = Compound A 1.00E−06 μM, LNP-1 0.0025, 0.00079, 0.00025, 7.9E−05, 2.5E−05, 0 μM
[9] = Compound A 1.00E−06 μM, LNP-2 0.0025, 0.00079, 0.00025, 7.9E−05, 2.5E−05, 0 μM
[10] = Compound A 3.16E−06 μM, LNP-1 0.0025, 0.00079, 0.00025, 7.9E−05, 2.5E−05, 0 μM
[11] = Compound A 3.16E−06 μM, LNP-2 0.0025, 0.00079, 0.00025, 7.9E−05, 2.5E−05, 0 μM
[12] = Compound A 3.17E−05 μM, LNP-1 0.0025, 0.00079, 0.00025, 7.9E−05, 2.5E−05, 0 μM
[13] = Compound A 3.17E−05 μM, LNP-2 0.0025, 0.00079, 0.00025, 7.9E−05, 2.5E−05, 0 μM

## COCCCOc1cc2c(nc1OC)-c1cc(=O)c(C(=O)O)cn1[C@H](C(C)C)C2 [Compound A]
[1]
  Additive % Inhibition (HBsAg) versus negative control: 47.52%
  Avg % Inhibition (HBsAg) versus negative control: 47.52%
Compound A 0.0001 μM, LNP-2 0.0025, 0.00079, 0.00025, 7.9E−05, 2.5E−05, 0 μM
  Additive % Inhibition (HBsAg) versus negative control: 48.07%
Compound A 0.0001 μM, rows r14-r19 = LNP-2 0.0025, 0.00079, 0.00025, 7.9E−05, 2.5E−05, 0 μM
  Avg % Inhibition (HBsAg) versus negative control: 48.07%
[2]
  Additive % Inhibition (HBsAg) versus negative control: 66.21%
  Avg % Inhibition (HBsAg) versus negative control: 66.21%
Compound A 0.000316 μM, LNP-2 0.0025, 0.00079, 0.00025, 7.9E−05, 2.5E−05, 0 μM
  Additive % Inhibition (HBsAg) versus negative control: 74.6%
Compound A 0.000316 μM, rows r14-r19 = LNP-2 0.0025, 0.00079, 0.00025, 7.9E−05, 2.5E−05, 0 μM
  Avg % Inhibition (HBsAg) versus negative control: 74.6%
[3]
  Additive % Inhibition (HBsAg) versus negative control: 84.38%
  Avg % Inhibition (HBsAg) versus negative control: 84.38%
Compound A 0.001 μM, LNP-2 0.0025, 0.00079, 0.00025, 7.9E−05, 2.5E−05, 0 μM
  Additive % Inhibition (HBsAg) versus negative control: 87.41%
Compound A 0.001 μM, rows r14-r19 = LNP-2 0.0025, 0.00079, 0.00025, 7.9E−05, 2.5E−05, 0 μM
  Avg % Inhibition (HBsAg) versus negative control: 87.41%
[4]
  Additive % Inhibition (HBsAg) versus negative control: 90.37%
  Avg % Inhibition (HBsAg) versus negative control: 90.37%
Compound A 0.00316 μM, LNP-2 0.0025, 0.00079, 0.00025, 7.9E−05, 2.5E−05, 0 μM
  Additive % Inhibition (HBsAg) versus negative control: 92.04%
Compound A 0.00316 μM, rows r14-r19 = LNP-2 0.0025, 0.00079, 0.00025, 7.9E−05, 2.5E−05, 0 μM
  Avg % Inhibition (HBsAg) versus negative control: 92.04%
[5]
  Additive % Inhibition (HBsAg) versus negative control: 92.38%
  Avg % Inhibition (HBsAg) versus negative control: 92.38%
Compound A 0.1 μM, LNP-2 0.0025, 0.00079, 0.00025, 7.9E−05, 2.5E−05, 0 μM
  Additive % Inhibition (HBsAg) versus negative control: 93.74%
Compound A 0.1 μM, rows r14-r19 = LNP-2 0.0025, 0.00079, 0.00025, 7.9E−05, 2.5E−05, 0 μM
  Avg % Inhibition (HBsAg) versus negative control: 93.74%
[6]
  Additive % Inhibition (HBsAg) versus negative control: 16.81%
  Avg % Inhibition (HBsAg) versus negative control: 16.81%
[7]
  Additive % Inhibition (HBsAg) versus negative control: 27.46%
  Avg % Inhibition (HBsAg) versus negative control: 27.46%
[8]
  Additive % Inhibition (HBsAg) versus negative control: 17.73%
  Avg % Inhibition (HBsAg) versus negative control: 17.73%
[9]
  Additive % Inhibition (HBsAg) versus negative control: 16%
  Avg % Inhibition (HBsAg) versus negative control: 16%
[10]
  Additive % Inhibition (HBsAg) versus negative control: 8.39%
  Avg % Inhibition (HBsAg) versus negative control: 8.39%
[11]
  Additive % Inhibition (HBsAg) versus negative control: 20.62%
  Avg % Inhibition (HBsAg) versus negative control: 20.62%
[12]
  Additive % Inhibition (HBsAg) versus negative control: 23.55%
  Avg % Inhibition (HBsAg) versus negative control: 23.55%
[13]
  Additive % Inhibition (HBsAg) versus negative control: 34.41%
  Avg % Inhibition (HBsAg) versus negative control: 34.41%
HepG2.2.15 cell culture, HBsAg quantitation by CLIA, read-out: 1st Inhibitor EC50
  EC50: 1 nM
